The target in test [1] is serotonin (S1) receptor. Nature of the test: In vitro binding to serotonin (S1) receptor, [3H] serotonin. Also on record: species or system rats. Particulars: rat brain crude synaptosome fraction. On the procedure:
(§1) Dopamine (D2), serotonin (S1, S2) and adrenaline (α1) receptor binding assays were carried out according to the methods of I. Creese et al. [Eur. J. Pharmacol., 46, 377 (1977), S. J. Peroutka et al. [Mol. Pharmacol. 16, 687 (1979)], J. E. Leysen et al. [Mol. Pharmacol., 21, 301 (1982)] and D. C. U'Prichard et al. [Mol. Pharmacol., 13, 454 (1977)], respectively.
(§2) Crude synaptosome fractions were prepared from some brain regions in rats for receptor sources. Radioactive ligands used were [^3 H] spiperone (D2), [^3 H] serotonin (S1), [^3 H] ketanserin (S2) and [^3 H] WB-4101 (α1). The binding assay was performed by incubating aliquots of synaptosome fraction in buffer solution (final volume: 1 ml) containing a [^3 H] labelled ligand and a test compound. The assay was terminated by rapid filtration through Whatman GF/B glass fiber filters attached to a cell-harvester (Brandel) and radioactivity on the filters was counted in a Packard Triscarb scintillation counter. Specific binding was calculated as a difference between amounts of radioactivity in the presence and absence of an unlabelled ligand [spiperone (D2), serotonin (S1), methysergide (S2) and prazosin (α1)]. The IC50 value of the test compounds (concentration causing 50% inhibition of [^3 H] ligand specific binding) was determined by probit analysis.

The target in test [2] is adrenaline (α1) receptor. Nature of the test: In vitro binding to adrenaline (α1) receptor, [3H] WB-4101. Also on record: species or system rats. As to conditions: [3H] WB-4101, rat brain crude synaptosome fraction. On the procedure:
as §1, §2

Test [3] has as its target T1, serotonin (S2) receptor (Rattus norvegicus, UniProt P14842).
T1 construct: Crude synaptosome fractions were prepared from some brain regions in rats for receptor sources; from tissue
In words: In vitro binding to serotonin (S2) receptor, [3H] ketanserin. As to conditions: [3H] ketanserin, rat brain crude synaptosome fraction. Also on record: species or system rats. On the procedure:
as §1, §2

Test [4] concerns brain monoamine metabolites. In words: Increasing effect on concentration of brain monoamine metabolites. As to conditions: Mus musculus, 2 h, non-dosed=100. The format is in vivo, mice (Std-ddy strain). On the procedure:
A group of 5 male mice (Std-ddy strain, 25-30 g) was used for examining effect of the test compounds on concentration of brain monoamine metabolites.
Mice were killed by decapitation 2 hours after treatment with the test compounds. Brains were quickly taken out, homogenized in 1N formic acid-acetone solution, and centrifuged in a refrigerated ultracentrifuge. The supernatant was evaporated by blowing with N2 gas. Then, the residue was again resolved in 0.01 N acetic acid, and served for determining concentration of dopamine metabolites, 3,4-dihydroxyphenylacetic acid (DOPAC) and homovanillic acid (HVA), a norepinephrine metabolite, 3-methyl-4-hydroxyphenylethylene glycol (MOPEG), and a serotonin metabolite, 5-hydroxyindole-3-acetic acid (5-HIAA) concentrations by HPLC with electrochemical detection. The effect of the test compounds on concentration of each monoamine metabolite is shown as % of control (level of non-dosed animals=100) in Table 4.

Test [5] has as its system apomorphine-induced vomiting. In words: Antagonistic effect on apomorphine-induced vomiting. As to conditions: Canis lupus familiaris, sc, apomorphine 0.3 mg/kg s.c. 2 h after compound, read-out: Inhibitory ratio (apomorphine-induced vomiting). The format is in vivo, dogs (Beagle). On the procedure:
A group of 3-4 dogs (Beagle, 8-15 kg) was used for examining effects on the test compounds on apomorphine-induced vomiting, a known test for evaluating neuroleptic drugs.
Each dog was given a subcutaneous injection of apomorphine hydrochloride (0.3 mg/kg) two hours after the treatment of the test compounds. Then, the frequency of oral vomiting was counted for one hour. The mean counts of the compound-treated group were compared with those of the corresponding control (non-dosed) group, and the percent inhibition was calculated.

The target of test [6] is T2, dopamine (D2) receptor (Rattus norvegicus, UniProt P61169).
T2 construct: Crude synaptosome fractions were prepared from some brain regions in rats for receptor sources; from tissue
T2 sequence (P61169 whole entry): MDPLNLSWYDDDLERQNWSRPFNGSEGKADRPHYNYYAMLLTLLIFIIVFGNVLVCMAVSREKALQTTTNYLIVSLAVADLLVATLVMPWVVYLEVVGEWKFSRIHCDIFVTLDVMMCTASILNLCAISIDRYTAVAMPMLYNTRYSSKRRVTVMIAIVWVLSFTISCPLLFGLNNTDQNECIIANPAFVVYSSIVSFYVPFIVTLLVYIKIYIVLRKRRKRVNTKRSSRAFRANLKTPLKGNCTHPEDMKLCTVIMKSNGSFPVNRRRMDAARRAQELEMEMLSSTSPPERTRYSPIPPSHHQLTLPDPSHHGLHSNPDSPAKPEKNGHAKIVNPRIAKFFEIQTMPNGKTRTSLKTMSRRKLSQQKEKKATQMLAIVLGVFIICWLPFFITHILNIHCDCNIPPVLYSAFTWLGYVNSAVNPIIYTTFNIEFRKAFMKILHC
Nature of the test: In vitro binding to dopamine (D2) receptor, [3H] spiperone. Also on record: species or system rats. As to conditions: [3H] spiperone, rat brain crude synaptosome fraction; read-out: IC50 D2. Here is the method: as §1, §2

The test system of test [7] is cycloheximide-induced amnesia of passive avoidance response. Nature of the test: Improving effect on cycloheximide-induced amnesia of passive avoidance response. It is filed as in vivo, mice (Std-ddY strain). Particulars: cycloheximide 60 mg/kg s.c., retention at 24 h. The text has this: Anti-amnesic effect of the test compounds was examined using mice given cycloheximide, which is a known amnesia-inducing agent.
A group of 15-20 male mice (Std-ddY strain, 27-33 g) was subjected to training and retention trials for a passive avoidance task in a step-down apparatus (30×30×50 cm) with a grid floor and a wooden platform (4×4×4 cm) in a center of the floor. In the training trial, each mouse was first placed on the platform. When the mouse stepped down on the grid floor, an electric shock (1 Hz, 0.5 sec, 60 VDC) was delivered to the feet for 15 seconds. Immediately after the training trial, cycloheximide (60 mg/kg, s.c.) and a test compound (i.p.) were administered. The retention trial was carried out 24 hours thereafter, the time from placing again each mouse placed on the platform until stepping down on the grid floor (step-down latency) was measured. The step-down latency in the retention trial was markedly shortened by treatment of cycloheximide (amnesia). The effect of test compounds was assessed by % improvement (complete improvement to the latency level of non-dosed animals=100%).

Test [8] has as its system exploratory activity. Nature of the test: Inhibitory effect on exploratory activity (Animex activity meter). It is filed as in vivo, mice (Std-ddy strain). As to conditions: oral, 2 h after administration, 3 min counting; dose not given. On the procedure: A group of 5 male mice (Std-ddy strain, 20-25 g) was used. Two hours after oral administration of the test compound, mice were placed individually in a test box (23×35×30 cm) on Animex activity meter (Farad Co.). Immediately thereafter, activity counting was started and lasted for three minutes. The mean counts of the compound-treated group were compared with those of the corresponding control (non-dosed) group, and the percent inhibition was calculated.

The test system of test [9] is scopolamine-induced deficit of spontaneous alternation. Nature of the test: Improving effect on scopolamine-induced deficit of spontaneous alternation behavior (T-maze). The format is in vivo, mice (Std-ddY strain). Particulars: dose 10.0 mg/kg i.p.; scopolamine hydrobromide 1 mg/kg i.p. The text has this: A group of 15-25 male mice (Std-ddY strain, 22-28 g) was used for evaluating effect of the test compounds on scopolamine-induced deficit of spontaneous alternation in a T-maze, which is a known animal model of memory impairment due to hypofunction of the cholinergic nervous system. The T-maze used consists of a stem and two arms which are 25 cm long, 5 cm wide and 10 cm high. The first 10 cm of the stem and last 10 cm of each arm are divided by sliding doors into start and goal boxes.
A test compound and scopolamine hydrobromide (1 mg/kg) were intraperitoneally administered to each mouse, and after 30 minutes a test of spontaneous alternation task in the T-maze was continuously repeated for 8 trials. Commonly, naive mice alternate each (right and left) goal box in turn, but scopolamine-treated animals tend to enter the same goal box repeatedly. The effect of the test compounds was expressed as % improvement (complete improvement to the alternation level of non-dosed mice=100%).

[10] abbreviates: read-out: 5-HIAA concentration, % of control.
The mark [11] stands for this setting: read-out: DOPAC concentration, % of control.
The mark [12] stands for this setting: read-out: HVA concentration, % of control.
Setting [13] is: read-out: MOPEG concentration, % of control.

SMILES strings stand for the structures. pIC50: −log10 of the molar value. Like-named read-outs stand apart in the source and are kept apart here.

Broadly, the pIC50 is −log10 of the IC50, conventionally taken in molar units.

T1 sequence (P14842 whole entry): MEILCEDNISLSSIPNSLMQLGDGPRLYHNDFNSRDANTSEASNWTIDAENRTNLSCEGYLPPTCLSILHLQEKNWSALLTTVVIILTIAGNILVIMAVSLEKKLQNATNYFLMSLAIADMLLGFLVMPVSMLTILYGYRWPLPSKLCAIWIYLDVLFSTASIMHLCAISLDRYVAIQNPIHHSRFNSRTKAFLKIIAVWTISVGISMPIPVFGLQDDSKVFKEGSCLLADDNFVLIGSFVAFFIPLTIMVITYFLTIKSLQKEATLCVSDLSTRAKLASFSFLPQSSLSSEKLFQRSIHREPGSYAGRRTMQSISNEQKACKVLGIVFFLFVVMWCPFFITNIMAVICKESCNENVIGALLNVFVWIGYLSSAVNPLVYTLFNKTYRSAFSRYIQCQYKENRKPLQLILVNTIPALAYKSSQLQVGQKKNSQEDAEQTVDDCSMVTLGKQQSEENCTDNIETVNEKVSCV

Regarding `CCN1CCN(c2cc(-c3ccc(F)cc3)c3c(n2)CCCC3)CC1` [Example 15], the pIC50 in [1] is 5.77; in test [2], 7.46; in test [3], 7.72; in test [6] it was 7.24. The response vs control in vivo at 10 mg/kg in test [4] (setting [10]) was determined as 108%; in test [4] (setting [11]), 277%; in [4] (setting [12]) it was 235%; in test [4] (setting [13]), 118%. Moreover, in test [5], the inhibition in vivo at 3 mg/kg amounted to 100%.
Consider `CCN1CCN(c2cc(-c3ccc(F)cc3)c3c(n2)C2CCC3C2)CC1` (stereo not shown) [Example 73], for which the pIC50 in test [2] was 8.34; in test [3] it was 8.62; in [6] it was 7.74. Moreover, in [5], the inhibition in vivo at 1 mg/kg turned out to be 100%.
Take `Fc1ccc(-c2cc(N3CCNCC3)nc3c2CCCC3)cc1` [Example 92, 2-(1-Piperazinyl)-4-(4-fluorophenyl)-5,6,7,8-tetrahydroquinoline]: the pIC50 in test [1] was 5.72; in [2] it was 6.42; in test [3], 7.57; in test [6], 6.52. The entries for the “Improvement (step-down latency)” value in test [7] (dose 2.0 mg/kg i.p.) and in [7] (dose 10.0 mg/kg i.p.) were 44% and 78%, respectively. Further, the response vs control in vivo at 10 mg/kg in test [4] (setting [10]) came out at 139%; in [4] (setting [11]), 208%; in test [4] (setting [12]), 192%; in [4] (setting [13]), 121%.
In the case of `CCN1CCN(c2cc(-c3ccccc3)c3c(n2)CCCCC3)CC1` [Example 23, 2-(4-Ethyl-1-piperazinyl)-4-phenyl-6,7,8,9-tetrahydro-5H-cyclohepta[b]pyridine], the pIC50 in [1] was 5.54; in test [2], 6.49; in test [3], 8.11; in [6], 7.02. In addition, the response vs control in vivo at 10 mg/kg in [4] (setting [10]) was 145%; in test [4] (setting [11]), 344%; in test [4] (setting [12]) it was 320%; in test [4] (setting [13]), 115%.
With `CCN1CCN(c2cc(-c3ccc(F)cc3)c3c(n2)CCCCCC3)CC1` [Example 1b, 2-(4-ethyl-1-piperazinyl)-4-(4-fluorophenyl)-5,6,7,8,9,10-hexahydrocycloocta[b]pyridine], in [8], the “Inhibitory ratio (exploratory activity)” value was 83.7%. For the same molecule, the values for the pIC50 in test [2], in test [3] and in test [6] were 7.04, 8.15 and 7.34, respectively. In addition, the response vs control in vivo at 1 mg/kg was 102% in test [4] (setting [10]), 235% in [4] (setting [11]), 212% in test [4] (setting [12]) and 118% in [4] (setting [13]). For the same molecule, in test [5] (dose 0.3 mg/kg), the inhibition in vivo at 0.3 mg/kg is 88%.
Consider `CCN1CCN(c2cc(-c3ccc(F)cc3F)c3c(n2)CCCCCC3)CC1` [Example 2a, 2-(4-ethyl-1-piperazinyl)-4-(2,4-difluorophenyl)-5,6,7,8,9,10-hexahydrocycloocta[b] pyridine], for which, in test [8], the “Inhibitory ratio (exploratory activity)” value was 77.5%. The values for the pIC50 in test [2], in [3] and in [6] were 7.06, 7.55 and 7.62, respectively.
For the molecule `OCCN1CCN(c2cc(-c3ccc(F)cc3)c3c(n2)CCC3)CC1` [Example 7, 2-[4-(2-Hydroxyethyl)-1-piperazinyl]-4-(4-fluoro-phenyl)-6,7-dihydro-5H-1-pyrindine], the pIC50 was 8.02 in test [3] and 7.52 in [6]. The inhibition in vivo at 1 mg/kg in [5] came to 80%.
Regarding `c1ccc(-c2cc(N3CCNCC3)nc3c2CCCCC3)cc1` [Example 96], the pIC50 is 5.31 in test [1], 5.96 in test [2], 7.21 in test [3] and 6.18 in [6]. For the same molecule, the “Improvement (step-down latency)” value turned out to be 81% in test [7] (dose 0.5 mg/kg i.p.) and 64% in [7] (dose 2.0 mg/kg i.p.). Moreover, the response vs control in vivo at 10 mg/kg in test [4] (setting [10]) came to 127%; in [4] (setting [11]) it was 201%; in [4] (setting [12]) it was 194%; in test [4] (setting [13]) it was 115%.
For the molecule `c1ccc(-c2cc(N3CCNCC3)nc3c2CCCC3)cc1` [Example 86, 2-(1-piperazinyl)-4-phenyl-5,6,7,8-tetrahydroquinoline], the pIC50 in [1] was 5.85; in [2] it was 6.28; in test [3] it was 7.09; in [6], 6.14. For the same molecule, the “Improvement (spontaneous alternation)” value in [9] was 47.6%.
`CCN1CCN(c2cc(-c3ccccc3)c3c(n2)C2CCC3C2)CC1` (stereo not shown) [Example 71]: the “Inhibitory ratio (exploratory activity)” value in test [8] is on record as 61.9%. For the same molecule, the negative-log IC50 (pIC50) is 7.89 in test [2], 7.85 in test [3] and 7.60 in test [6]. The inhibition in vivo at 3 mg/kg in test [5] is 84%.
